Converted amounts (≈) assume the structure as drawn.
Assays:
K562 cells = assay: anti-tumor in vitro experiment, K562 cell growth inhibition (trypan blue counting); format: cell-based; settings: Homo sapiens, 48 hours at 37° C., trypan blue living-cell count, read-out: median inhibitory concentration IC50
Protocol: Implementation case 3: anti-tumor in vitro experiments
The cultivation condition for K562 cells (human chronic myeloid leukemia leap cell lines) is: the volume fraction of 10 percent of the calf serum RPMI1640, penicillin (100 IU/ml) and streptomycin (100 μg/ml), at 37° C., 5% CO2 incubation box for cultivation. Take the logarithm growth period cells used for the inhibition rate experiments, with the concentration of cells inoculated 2.5×10^5/ml. In the 96-pore cultivation board, K562 cells are vaccinated with the inoculation amount of about 5×10^4/pore, 200 μl each pore. The drug is dissolved in dimethyl sulfoxide (DMSO), making the storage fluid of 10 mg/ml. Four groups are set up in this experiment, adding different concentrations of drugs respectively, so that the final concentrations are respectively 0.1, 1, 10, 100 μg/ml. There is no drug added for the reference control group, and three parallel holes are set up for each group, cultivating at 37° C. for 48 hours. Taking 0.4 percent trypan blue liquid (take 4 g trypan blue and put it into 100 ml PBS, making four percent trypan blue raw fluid, filtrated and disinfected, stored in 4° C. refrigerator, ready to use. Concentration is of 0.4 percent) and the cell suspension fluid, 50 μl respectively, mixing, and then take appropriate mixed fluid to fill in cell counting board, counting the four big grid non-coloring living cells. […]

[1] = Solubility (physical and chemical properties); format: physicochemical

IC50 (K562 cells): 12.4 µg/mL (≈ 24.8 µM)
Solubility ([1]; in methyl alcohol, ethyl acetate and dimethylsulfoxide): soluble
Solubility ([1]; in n-hexane or petroleum ether): nearly insoluble
Solubility ([1]; in water): insoluble
SMILES: C/C1=C/[C@H](C)C[C@H](C)[C@H](Cc2cnco2)OC(=O)/C(C)=C\[C@H](C)C[C@H](C)C(Cc2cnco2)OC1=O (stereo partly shown) [FW-04-806]
